Laboratory results reported in patent publication US20250375467A1, “SUSTAINED RELEASE SILICA HYDROGEL COMPOSITES FOR TREATING OPHTHALMOLOGICAL CONDITIONS AND METHODS OF USING SAME” (ASTELLAS US LLC, priority 2022, published 2025).

Design: species or system Dutch belted (DB) rabbit
Conditions: rabbit, in vivo
Experimental: The composite formulation (using formulation #11 CSTR-3) prepared as described in Examples 2 and 3, whose in vitro release profile is shown in FIG. 8A and FIG. 8B, was evaluated for ACP release and tissue exposure following IVT administration in the Dutch belted (DB) rabbit. The study design includes bilateral intravitreal dosing of 1.0 mg oligo equivalent in a 50 μL dosing volume of silica composite PK formulation. Two rabbits (4 eyes) were collected at each of the following time points, day 1, 3, 7, 14, 28, 42, 56, and 84. Eyes were dissected, and vitreous humor, retina, and retinal pigment epithelium (RPE)/choroid were collected for tissue specific bioanalytical analysis employing a qualified dual-hybridization assay. The ocular PK (pharmacokinetics) is summarized in FIG. 9 for liquid formulation administered as an IVT bolus dose for vitreous humor and retina tissues as comparator to the sustained release depot PK formulation. The ocular tissue PK for the PK formulation is provided as solid lines for vitreous humor (top line), retina (middle line) and RPE/choroid (bottom line).
At study termination (day 84), the remaining PK formulation depot was recovered from the vitreous humor by centrifugation and analyzed for remaining silica by microwave plasma atomic emission spectroscopy (MP-AES) method and avacincaptad pegol content by a qualified HPLC assay method. […]

terminal half-life: 91.2 h
Substance: avacincaptad pegol [ACP]
